We go through 12 compounds from ChEMBL document CHEMBL1201862, “PubChem BioAssay data set” (2004).

Test [1] in a line: OVCAR8 cell viability loss – plate reader, dry powder samples, PAX8 project, dose response (AID 743197). The class given is functional, cell-based. To be noted: OVCAR-8.
The nature of test [2]: OVCAR-3 cell viability loss – plate reader, dry powder samples, PAX8 inhibitor project, dose response (AID 743044). The test is classed as functional, cell-based.
For a further test, the target named is Paired box protein Pax-8 (Homo sapiens, UniProt Q06710). Put plainly: PAX8 transcriptional activity inhibition in RMG-I – RMG-I cells, luciferase, cherry-pick, dose response (AID 687027).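 Note: luciferase reporter driven by Pax8 target thyroperoxidase promoter measured by SteadyGlo luminescence.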 The test is classed as functional, cell-based.
Paired box protein Pax-8, sequence (Q06710 whole entry): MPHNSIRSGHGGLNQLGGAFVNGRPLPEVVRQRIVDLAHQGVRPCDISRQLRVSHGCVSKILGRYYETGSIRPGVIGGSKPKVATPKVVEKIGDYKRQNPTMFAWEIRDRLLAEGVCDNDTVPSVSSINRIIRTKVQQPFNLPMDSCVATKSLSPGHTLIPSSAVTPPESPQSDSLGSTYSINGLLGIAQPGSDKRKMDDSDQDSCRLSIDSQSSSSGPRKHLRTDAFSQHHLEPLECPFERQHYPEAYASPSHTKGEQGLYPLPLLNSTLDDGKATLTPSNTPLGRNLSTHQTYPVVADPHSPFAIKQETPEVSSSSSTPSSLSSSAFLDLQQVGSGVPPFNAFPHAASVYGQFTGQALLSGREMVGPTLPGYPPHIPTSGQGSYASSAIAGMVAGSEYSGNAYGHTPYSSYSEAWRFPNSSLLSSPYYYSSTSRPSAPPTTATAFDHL
Test [3] can be described thus: IGROV1 cell killing – plate reader, dry powder samples, PAX8 inhibitor project, dose response (AID 743043). The test is classed as functional, cell-based. To be noted: IGROV-1.
A short description of test [4]: A2780 cell killing – plate reader, dry powder samples, cytotoxicity control, dose response (AID 743046). The class given is functional, cell-based.
A short description of test [5]: general mammalian cell viability loss – inhibitor set, cherry-pick, set 2, cytotoxicity control for miR-122 modulator project, dose response (AID 720697). The class given is functional, cell-based.
Test [6] can be described thus: T. cruzi growth inhibition in host cells, dose response, cell-based, plate reader, dry powder, set 2 (AID 652275). The class given is functional.
Test [7] in a line: Luminescence Cell-Based Dose Confirmation to Identify Activators of 5'UTR Stem-Loop Driven Alpha-Synuclein mRNA Translation in H4 Neuroglioblastoma Cells. [Related pubchem assays: 1829 (Project Summary), 1814 (Primary HTS)]. The class given is functional.
In the next test the test system is H4. The experiment in a line: Luminescence Cell-Based Dose Response HTS to Identify Activators of 5'UTR Stem-Loop Driven Prion Protein mRNA Translation in H4 Neuroglioblastoma Cells. [Related pubchem assays: 1829 (Project Summary), 1814 (Primary HTS)]. The following applies: Homo sapiens. The class given is functional.
Test [8] is described as follows: Luminescence Cell-Based Dose Confirmation HTS to Identify Activators of 5'UTR Stem-Loop Driven Alpha-Synuclein mRNA Translation in H4 Neuroglioblastoma Cells. [Related pubchem assays: 1829 (Project Summary), 1814 (Primary HTS)]. The test is classed as functional.
Test [9] is described as follows: Luminescence Cell-Based Dose Response HTS to Identify Activators of Luciferase Translation or Activity in H4 […] Cells. [Related pubchem assays: 1829 (Project Summary), 1814 (Primary HTS)]. The class given is functional.
The nature of test [10]: Luminescence Cell-Based Dose Response to Identify Activators of Luciferase Translation or Activity in H4-C Neuroglioblastoma Cells. [Related pubchem assays: 1829 (Project Summary), 1814 (Primary HTS)]. The test is classed as functional.
Test [11] is described as follows: Luminescence Cell-Based Dose Response to Identify Activators of 5'UTR Stem-Loop Driven Prion Protein mRNA Translation in H4-C Neuroglioblastoma Cells. [Related pubchem assays: 1829 (Project Summary), 1814 (Primary HTS)]. The test is classed as functional.
Another test has as its target T1, Protein Tat (Human immunodeficiency virus type 1 group M subtype B (isolate HXB2)(HIV-1), UniProt P04608).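 Note: tat binding to TAR RNA read out by fluorescence polarization.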
T1 sequence (P04608 whole entry): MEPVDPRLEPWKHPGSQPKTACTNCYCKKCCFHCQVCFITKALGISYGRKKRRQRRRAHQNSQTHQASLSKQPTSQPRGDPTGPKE
The class given is functional.

The nature of test [12]: growth inhibition of PfATP4-mutant resistant parasites – NITD609-resistant line, SYBR Green, dry powder, dose response (AID 1159571).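 Note: parasites synchronized at ring stage by sorbitol before testing.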 The class given is functional, cell-based.
Test [13] is described as follows: growth inhibition of yeast DHODH-expressing 3D7 parasites – SYBR Green, dry powder samples, dose response (AID 1159570).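 Note: parasite growth measured after 72 hours of compound exposure.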 The test is classed as functional, cell-based.
A short description of test [14]: Dd2 malaria parasite growth inhibition potency – SYBR Green, dry powder samples, dose response (AID 1159566).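 Note: potency for growth inhibition with lower SYBR green DNA signal.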 The test is classed as functional, cell-based.
A short description of test [15]: P. falciparum Dd2 growth inhibitors, dose response, SYBR Green, cherry-picked samples (AID 1159567). The test is classed as functional, cell-based.
Test [16] can be described thus: Dd2 parasite growth inhibition in erythrocytes – SYBR Green, dry powder samples, set 9, dose response (AID 1159568). The test is classed as functional, cell-based.
The target of test [17] is T2, Ubiquitin-conjugating enzyme E2 N (Homo sapiens, UniProt P61088).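 Note: Dose-response confirmation in a TR-FRET assay detecting UBC13-driven polyubiquitin chain formation, inhibition measured.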
T2 sequence (P61088 whole entry): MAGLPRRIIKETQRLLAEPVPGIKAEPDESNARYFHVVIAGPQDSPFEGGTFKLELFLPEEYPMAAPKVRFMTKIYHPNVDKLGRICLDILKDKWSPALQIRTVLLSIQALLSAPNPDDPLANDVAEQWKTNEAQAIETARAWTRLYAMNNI
The class given is functional.

Test [18] can be described thus: Luminescence Cell-Based Dose Retest to Confirm Inhibitors of Cancer Stem Cells. [Related pubchem assays (depositor defined):AID2717, AID2721]. The class given is functional. To be noted: Homo sapiens.
A short description of test [19]: NIH3T3 cell viability loss – ATP luminescence, mouse fibroblasts, counter-screen, dose response (AID 2010).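 Note: cells exposed to compound for about 90 hours before reading.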 The class given is functional, cell-based. In general terms: A counterscreen serves to expose hits that act by an unwanted route or on another target.
The test system of another test is INS1. Put plainly: INS-1E survival protection against cytokine death – cell-based, luminescence, retest, dose response (AID 449756).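 Note: cell death triggered by IL-1 beta plus TNF-alpha plus IFN-gamma mixture; protective hits raise ATP signal compared with cytokine alone wells.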 The class given is functional. The following applies: Rattus norvegicus.
The nature of test [20]: Trypanosoma cruzi growth suppression in host cells – NIH3T3 host cells, beta-gal luminescence, confirmation (AID 2044).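 Note: intracellular parasites grown in NIH/3T3 mouse fibroblasts as host cells; luminescent beta-galactosidase reporter signal from transgenic T. cruzi replicating inside host cells; inhibitors lower the luminescence signal.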 The class given is functional, cell-based.
In test [21] the target is Arf-GAP with SH3 domain, ANK repeat and PH domain-containing protein 1 (Homo sapiens, UniProt Q9ULH1). The class given is functional.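 Note: biochemical fluorescence polarization dose–response screen measuring inhibition of ASAP1; ASAP1 GAP domain stimulating GTP hydrolysis by truncated human ARF1.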
Arf-GAP with SH3 domain, ANK repeat and PH domain-containing protein 1, sequence (Q9ULH1 whole entry, the tested form may be a part): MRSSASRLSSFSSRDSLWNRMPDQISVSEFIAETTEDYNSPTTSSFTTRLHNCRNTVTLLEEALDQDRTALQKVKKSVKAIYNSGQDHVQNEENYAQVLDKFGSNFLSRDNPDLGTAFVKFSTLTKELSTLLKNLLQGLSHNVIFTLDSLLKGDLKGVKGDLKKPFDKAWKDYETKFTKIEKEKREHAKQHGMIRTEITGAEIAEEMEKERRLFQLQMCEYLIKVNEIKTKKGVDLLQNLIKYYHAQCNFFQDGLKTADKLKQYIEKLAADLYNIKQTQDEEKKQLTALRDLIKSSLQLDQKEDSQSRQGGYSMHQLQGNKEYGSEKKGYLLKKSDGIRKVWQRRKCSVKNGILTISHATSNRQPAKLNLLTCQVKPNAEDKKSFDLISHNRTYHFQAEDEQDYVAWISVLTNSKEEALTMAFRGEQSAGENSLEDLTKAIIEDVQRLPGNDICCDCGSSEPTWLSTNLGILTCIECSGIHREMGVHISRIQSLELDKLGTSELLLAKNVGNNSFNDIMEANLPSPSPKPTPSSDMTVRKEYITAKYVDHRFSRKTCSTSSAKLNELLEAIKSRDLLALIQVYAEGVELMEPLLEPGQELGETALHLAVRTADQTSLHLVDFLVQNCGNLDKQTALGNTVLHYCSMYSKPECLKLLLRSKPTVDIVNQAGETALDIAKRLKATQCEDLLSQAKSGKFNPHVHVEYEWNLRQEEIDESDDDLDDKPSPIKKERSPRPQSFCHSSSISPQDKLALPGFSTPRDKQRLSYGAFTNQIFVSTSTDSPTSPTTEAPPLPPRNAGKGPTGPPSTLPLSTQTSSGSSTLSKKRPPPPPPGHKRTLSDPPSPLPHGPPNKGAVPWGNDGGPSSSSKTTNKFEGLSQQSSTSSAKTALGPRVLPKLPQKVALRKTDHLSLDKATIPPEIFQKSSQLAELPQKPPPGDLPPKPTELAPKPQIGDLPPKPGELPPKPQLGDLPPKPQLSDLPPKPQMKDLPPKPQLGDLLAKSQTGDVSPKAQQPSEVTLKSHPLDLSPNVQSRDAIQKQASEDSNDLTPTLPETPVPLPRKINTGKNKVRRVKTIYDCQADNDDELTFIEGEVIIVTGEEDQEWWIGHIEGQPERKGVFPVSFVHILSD
Test [22] concerns the target T3, DNA repair protein RAD52 homolog (Homo sapiens, UniProt P43351).
T3 sequence (P43351 whole entry): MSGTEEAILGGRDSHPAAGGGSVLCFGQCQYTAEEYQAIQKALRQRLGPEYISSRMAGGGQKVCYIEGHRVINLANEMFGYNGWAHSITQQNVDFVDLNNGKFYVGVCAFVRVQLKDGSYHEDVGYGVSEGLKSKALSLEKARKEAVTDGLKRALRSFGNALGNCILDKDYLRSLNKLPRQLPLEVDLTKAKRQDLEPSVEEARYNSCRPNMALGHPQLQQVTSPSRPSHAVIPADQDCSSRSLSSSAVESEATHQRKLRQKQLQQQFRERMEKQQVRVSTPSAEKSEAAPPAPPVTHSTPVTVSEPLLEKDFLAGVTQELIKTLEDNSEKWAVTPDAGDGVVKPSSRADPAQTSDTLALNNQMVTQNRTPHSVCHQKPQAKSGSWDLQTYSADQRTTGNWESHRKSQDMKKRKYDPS
The class given is functional, biochemical.

Test [23] is described as follows: IC50 of insulin release inhibition, rat insulinoma INS-1E line, 5 mM glucose, cell-based (AID 1117331). The test is classed as functional.

Molecules are shown by their SMILES. Where a name gives a salt, the structure may show the parent alone. Active and inactive are the calls of the source. A value given as a limit tells only on which side of the number the result lay.

Turning to `C[C@@H]1CCCCO[C@H](CN(C)Cc2ccc(C(F)(F)F)cc2)[C@H](C)CN([C@@H](C)CO)C(=O)c2cc(NC(=O)Nc3ccc4c(c3)OCO4)ccc2O1`, the AC50 in test [1] is 36.8 µM (active); in test [2], 48.7 µM (active); at Paired box protein Pax-8 it was 3.34 µM (active); in test [3], 40.9 µM (active); in [4], 42.2 µM (active).
In the case of `Cc1cccc(S(=O)(=O)N2CC[C@@H]3[C@H]2c2cc(C4=CCCCC4)ccc2N[C@@H]3CO)c1`, the AC50 in [1] is > 70 µM (inactive); on Paired box protein Pax-8 it was 10.8 µM (active); in test [3], 55.6 µM (active).
Consider `CO[C@@H]1CN(C)C(=O)c2ccc(NC(C)=O)cc2OC[C@@H](C)N(C(=O)c2ccccc2F)C[C@H]1C`, for which the AC50 in test [5] is 147 nM (active).
Regarding `O=C(Cc1ccccn1)N1CCCCN2[C@@H](CO)[C@H](c3ccc(-c4ccccc4)cc3)[C@@H]2C1`, the half-maximal activity concentration (AC50) in test [6] was 551 nM (active).
For `COc1ccc(/C=N/Nc2nnc(-c3ncc[nH]3)c3ccccc23)cc1`, the EC50 in [7] was 962 nM (active); in the test with H4, 65.2 µM (active); in test [8], < 100 nM (active); in test [9], 1.93 µM (active); in test [10] it was 1.34 µM (active); in test [11], > 12 µM (not active).
In the case of `Cc1nccn1CC(=O)N/N=C/c1ccc(O)c(O)c1`, the IC50 on Protein Tat is 39 µM (inconclusive).
Same read-out and setting: then `COc1ccc(C(=O)N/N=C/c2cccnc2)cc1`, with > 100 µM (active).
Consider `C[C@@H]1CN([C@@H](C)CO)C(=O)c2cccc(NC(=O)c3cnccn3)c2O[C@@H]1CN(C)Cc1ccc(-c2ccccc2)cc1`, for which the AC50 in [12] is 357 nM (active); in test [13], 94.7 nM (active); in test [14], 381 nM (active); in test [15], 1.14 µM (active); in test [16], 0.378 µM (active).
`C[C@H]1CN([C@@H](C)CO)C(=O)c2cccc(NC(=O)NC3CCCCC3)c2O[C@H]1CN(C)Cc1ccc(C(F)(F)F)cc1`: the AC50 in test [16] was 31.7 µM (active).
With `OCCNc1nc(Nc2ccc(Cl)c(Cl)c2)nc2ccccc12`, the IC50 is > 20 µM (inactive) in [17] and 55.3 µM (inactive) in test [21]. Also, the AC50 is 2.43 µM (active) in test [18] and 13.4 µM (active) in the test on INS1. Moreover, the figures for the EC50 in test [19] and in test [20] were > 30 µM (not active) and 464 nM (active), respectively.
With `CCCCOc1cc(C(=O)OCCN(CC)CC)ccc1N` [BENOXINATE HYDROCHLORIDE], in test [22], the AC50 is 33.9 µM (active). In addition, the IC50 in test [23] is 15.5 µM (inactive).
For `CN1C(=O)CC[C@H]1c1cccnc1` [COTININE], in [23], the IC50 is > 33.3 µM (inactive).

As usually defined, the AC50 is the concentration giving half of the maximal activity seen. By EC50 is commonly meant the concentration giving half of the maximal effect. One may read the IC50 as the point on the concentration scale where inhibition reaches its midpoint.
